Assay [1] deals with T1, ATX (Homo sapiens, UniProt Q13822).
T1 construct: from tissue; host or cells: human plasma / serum
The assay is described as follows: Ex vivo human plasma assay (LPC to LPA, LC-MS/MS). Particulars: 37 °C, 3 h. Type of assay: biochemical. As for the experimental part: First, 5 μL of each test compound solution (10 mM, 100% dimethyl sulfoxide) was diluted 100 times with 495 μL of methanol and then 3 μL of a diluted methanol solution (1% dimethyl sulfoxide) was added to a human or rat serum solution. Next, 12 μL of the test compound solution was mixed into 48 μL of 100% serum in order to make 5 concentrations, and each tube was placed in a constant temperature water bath at 37 °C for 15 min. Subsequently, 10 mg/mL 18: 1 LPC solution (50% ethanol) was diluted to 375 μg/mL with serum and 2 μL was dispensed into each tube to make 50 μL. Each tube was reacted in a constant temperature water bath at 37 °C for 3 h. Then, 100 μL of a 0.5 μM 17:0 LPA solution (Chloroform/Methanol/Water = 65/35/8) was added to the reaction tube. Reaction mixture was centrifuged at 14,000 rpm, at 4 °C for 10 min in a centrifuge. Thereafter, 100 μL of 50% methanol solution was first dissolved in a 96-well polypropylene plate (Agilent Technologies 5042-1385, Santa Clara, CA, USA), and then 50 μL of the supernatant was carefully transferred from the centrifuged tube to the plate. Then, it was covered with a well cap (Thermo 276011, Thermo Fisher Scientific Solutions LLC, Seoul, Korea) and analyzed by LC-MS/MS (Agilent 1260).

The target in assay [2] is human ENPP2 (Homo sapiens, UniProt Q13822). The assay is described as follows: In vitro bis-pNPP assay (ATX inhibitory activity). It is filed as biochemical. Particulars: for IC50: in vitro bis-pNPP assay, human ENPP2. As for the experimental part: We confirmed the ATX inhibitory activity of each compound using bis-pNPP assay. First, 50 μL of 60 mM Tris-HCl (pH 9.0) solution was poured into a 96-well plate and 10 μL of the test compound solution (10% dimethyl sulfoxide) was added. Subsequently, 20 μL of a 3.75 nM human ENPP2 solution (buffer: 50 mM Tris-HCl (pH 8.5), 5 mM CaCl2, 2.5 mM MgCl2, 0.002% Brij 35) and 20 μL of 25 mM bis-pNPP solution (buffer: 50 mM Tris-HCl (pH 9.0)) were added and mixed. Spectrophotometric measurement was carried out at 405 nm at intervals of 10 s while reacting under 37 °C for 10 min.

The source of these data is article PMC6696049, “Pharmacophoric Site Identification and Inhibitor Design for Autotaxin” (Molecules, 2019).

For orientation: IC50 means the concentration that gives 50% inhibition. A high value points to weaker potency. On to `NS(=O)(=O)Nc1ccc(NC(=O)c2ccc3c(c2)CN(C(=O)OCc2cc(Cl)cc(Cl)c2)C3)cc1` [Compound 3, (3,5-dichlorophenyl)methyl 5-{[4-(sulfamoylamino)phenyl]carbamoyl}-2,3-dihydro-1H-isoindole-2-carboxylate], for which the IC50 in assay [1] amounted to 827 nM; in assay [2], 3.86 nM.

Compound `NS(=O)(=O)Nc1ccc(C(=O)Nc2ccc3c(c2)CN(C(=O)OCc2cc(Cl)cc(Cl)c2)C3)cc1` [Compound 4, (3,5-dichlorophenyl)methyl 5-[4-(sulfamoylamino)benzamido]-2,3-dihydro-1H-isoindole-2-carboxylate] yielded an IC50 in assay [2] of 12.7 nM. `NS(=O)(=O)Nc1ccc(C(=O)NC2CCN(C(=O)OCc3cc(Cl)cc(Cl)c3)CC2)cc1` [Compound 2, (3,5-dichlorophenyl)methyl 4-[4-(sulfamoylamino)benzamido]piperidine-1-carboxylate]: the IC50 in assay [2] was found to be 44.5 nM. In addition, the “potency relative to compound 1 in the bis-pNPP assay” value in assay [2] (ratio of bis-pNPP IC50 values, compound 2 vs compound 1) was “five-fold more potent”.
